Earlier results on one compound are cited in patent US20070231388A1, “Novel Pharmaceutical Dosage Form and Manufacturing Process” (Atlana Pharma AG, priority 2004, published 2007).

The conditions of the series: in comparison to pantoprazole itself or to pantoprazole sodium sesquihydrate.

`COc1ccnc(C[S+]([O-])c2nc3cc(OC(F)F)ccc3[n-]2)c1OC.COc1ccnc(C[S+]([O-])c2nc3cc(OC(F)F)ccc3[n-]2)c1OC.O.O.[Mg+2]` (stereo not shown) [Magnesium bis[5-[difluoromethoxy]-2-[[3,4-dimethoxy-2-pyridinyl]-methyl]sulfinyl]-1H-benzimidazolide]dihydrate]: the stability properties entry is reported as “improved stability properties”.
